Results from ChEMBL document CHEMBL1130994, “3-trifluoromethylcarbacephems: synthesis of broad spectrum antibacterial compounds” (1998).
In brackets after ≈: the same amount, converted by molar mass.

Legend:
Klebsiella pneumoniae [1] = assay: Compound was evaluated for inhibitory activity against KAE Klebsiella pneumoniae; assay type: functional
Providencia stuartii = assay: Compound was evaluated for inhibitory activity against PR33 Providencia stuartii; assay type: functional
Escherichia coli [2] = assay: Compound was evaluated for inhibitory activity against EC14 Escherichia coli sensitive; assay type: functional
Acinetobacter = assay: Compound was evaluated for inhibitory activity against AC12 Acinetobacter; assay type: functional
Enterococcus faecalis = assay: Compound was evaluated for inhibitory activity against 2041 Enterococcus faecalis Gp.D streptococcus penicillin susceptible; assay type: functional
Haemophilus influenzae [3] = assay: Compound was evaluated for inhibitory activity against C.L Haemophilus influenzae ampicillin sensitive; assay type: functional
Enterobacter cloacae [4] = assay: Compound was evaluated for inhibitory activity against 265a Enterobacter cloacae beta-lactamase; assay type: functional
Enterobacter cloacae [5] = assay: Compound was evaluated for inhibitory activity against EB5 Enterobacter cloacae; assay type: functional
Staphylococcus aureus [6] = assay: Compound was evaluated for inhibitory activity against X1.1 Staphylococcus aureus penicillin sensitive; assay type: functional
Morganella morganii = assay: Compound was evaluated for inhibitory activity against PR15 Morganella morganii; assay type: functional
Klebsiella aerogenes [7] = assay: Compound was evaluated for inhibitory activity against C32 Enterobacter aerogenes; assay type: functional
Haemophilus influenzae [8] = assay: Compound was evaluated for inhibitory activity against 76 Haemophilus influenzae beta-lactamase; assay type: functional
Serratia [9] = assay: Compound was evaluated for inhibitory activity against X99 Serratia; assay type: functional
Streptococcus pneumoniae = assay: Compound was evaluated for inhibitory activity against Park S Streptococcus pneumoniae; assay type: functional
Citrobacter = assay: Compound was evaluated for inhibitory activity against CF17 Citrobacter; assay type: functional
Salmonella = assay: Compound was evaluated for inhibitory activity against X514 Salmonella; assay type: functional
Escherichia coli [10] = assay: Compound was evaluated for inhibitory activity against TEM Escherichia coli beta-lactamase; assay type: functional
Streptococcus pyogenes [11] = assay: Compound was evaluated for inhibitory activity against C203 Streptococcus pyogenes Gp.A; assay type: functional
Staphylococcus aureus [12] = assay: Compound was evaluated for inhibitory activity against X400S Staphylococcus aureus methicillin resistant and macrolide resistant; assay type: functional
Staphylococcus aureus [13] = assay: Compound was evaluated for inhibitory activity against S13E Staphylococcus aureus methicillin resistant penicillin resistant macrolide sensitive (PBP2a producer); assay type: functional
Klebsiella aerogenes [14] = assay: Compound was evaluated for inhibitory activity against EB17 Enterobacter aerogenes; assay type: functional
Klebsiella pneumoniae [15] = assay: Compound was evaluated for inhibitory activity against X26 Klebsiella pneumoniae; assay type: functional
Serratia [16] = assay: Compound was evaluated for inhibitory activity against SE3 Serratia; assay type: functional
Providencia rettgeri = assay: Compound was evaluated for inhibitory activity against C24 Providencia rettgeri; assay type: functional
Streptococcus pyogenes [17] = assay: Compound was evaluated for inhibitory activity against C203 Streptococcus pyogenes Gp.A; No growth; assay type: functional, organism-based

SMILES | MIC (Klebsiella pneumoniae [1]) [µM] | MIC (Providencia stuartii) [µM] | MIC (Escherichia coli [2]) [µM] | MIC (Acinetobacter) [µM] | MIC (Enterococcus faecalis) [µM] | MIC (Haemophilus influenzae [3]) [µM] | MIC (Enterobacter cloacae [4]) [µM] | MIC (Enterobacter cloacae [5]) [µM] | MIC (Staphylococcus aureus [6]) [µM] | MIC (Morganella morganii) [µM] | MIC (Klebsiella aerogenes [7]) [µM] | MIC (Haemophilus influenzae [8]) [µM] | MIC (Serratia [9]) [µM] | MIC (Streptococcus pneumoniae) [µM] | MIC (Citrobacter) [µM] | MIC (Salmonella) [µM] | MIC (Escherichia coli [10]) [µM] | MIC (Staphylococcus aureus [12]) [µM] | MIC (Staphylococcus aureus [13]) [µM] | MIC (Klebsiella aerogenes [14]) [µM] | other results
Cc1cccc([C@@H](N)C(=O)N[C@@H]2C(=O)N3C(C(=O)O)=C(C(F)(F)F)CC[C@H]23)c1 | 16 (≈ 6.36 µg/mL) | 8 (≈ 3.18 µg/mL) | 2 (≈ 0.795 µg/mL) | 32 (≈ 12.7 µg/mL) | 8 (≈ 3.18 µg/mL) | 1 (≈ 0.397 µg/mL) | 32 (≈ 12.7 µg/mL) | 16 (≈ 6.36 µg/mL) | 1 (≈ 0.397 µg/mL) | 8 (≈ 3.18 µg/mL) | 32 (≈ 12.7 µg/mL) | 2 (≈ 0.795 µg/mL) | 16 (≈ 6.36 µg/mL) | 0.25 (≈ 0.0993 µg/mL) | 16 (≈ 6.36 µg/mL) | 8 (≈ 3.18 µg/mL) | 4 (≈ 1.59 µg/mL) | 4 (≈ 1.59 µg/mL) | 4 (≈ 1.59 µg/mL) | 4 (≈ 1.59 µg/mL) | MIC (Streptococcus pyogenes [11]): 0.03 µM (≈ 0.0119 µg/mL); MIC (Klebsiella pneumoniae [15]): 1 µM (≈ 0.397 µg/mL); MIC (Serratia [16]): 32 µM (≈ 12.7 µg/mL); MIC (Providencia rettgeri): 16 µM (≈ 6.36 µg/mL)
N[C@@H](C(=O)N[C@@H]1C(=O)N2C(C(=O)O)=C(C(F)(F)F)CC[C@H]12)c1ccccc1 | 4 (≈ 1.53 µg/mL) | 4 (≈ 1.53 µg/mL) | 0.5 (≈ 0.192 µg/mL) | 32 (≈ 12.3 µg/mL) | 16 (≈ 6.13 µg/mL) | 1 (≈ 0.383 µg/mL) | 8 (≈ 3.07 µg/mL) | 4 (≈ 1.53 µg/mL) | 0.5 (≈ 0.192 µg/mL) | 32 (≈ 12.3 µg/mL) | 4 (≈ 1.53 µg/mL) | 1 (≈ 0.383 µg/mL) | 8 (≈ 3.07 µg/mL) | 0.25 (≈ 0.0958 µg/mL) | 4 (≈ 1.53 µg/mL) | 0.25 (≈ 0.0958 µg/mL) | 1 (≈ 0.383 µg/mL) | 32 (≈ 12.3 µg/mL) | 8 (≈ 3.07 µg/mL) | 2 (≈ 0.767 µg/mL) | MIC (Streptococcus pyogenes [11]): 0.03 µM (≈ 0.0115 µg/mL); MIC (Klebsiella pneumoniae [15]): 0.25 µM (≈ 0.0958 µg/mL); MIC (Serratia [16]): 16 µM (≈ 6.13 µg/mL); MIC (Providencia rettgeri): 8 µM (≈ 3.07 µg/mL)
N[C@@H](C(=O)N[C@@H]1C(=O)N2C(C(=O)O)=C(C(F)(F)F)CC[C@H]12)c1ccc(O)c(Cl)c1 | 4 (≈ 1.74 µg/mL) | 4 (≈ 1.74 µg/mL) | 0.5 (≈ 0.217 µg/mL) | 32 (≈ 13.9 µg/mL) | 4 (≈ 1.74 µg/mL) | 0.5 (≈ 0.217 µg/mL) | 16 (≈ 6.94 µg/mL) | 8 (≈ 3.47 µg/mL) | 1 (≈ 0.434 µg/mL) | 4 (≈ 1.74 µg/mL) | 2 (≈ 0.868 µg/mL) | 0.5 (≈ 0.217 µg/mL) | 4 (≈ 1.74 µg/mL) | 0.06 (≈ 0.026 µg/mL) | 4 (≈ 1.74 µg/mL) | 0.125 (≈ 0.0542 µg/mL) | 1 (≈ 0.434 µg/mL) | 8 (≈ 3.47 µg/mL) | 8 (≈ 3.47 µg/mL) | 1 (≈ 0.434 µg/mL) | MIC (Streptococcus pyogenes [11]): 0.03 µM (≈ 0.013 µg/mL); MIC (Klebsiella pneumoniae [15]): 0.13 µM (≈ 0.0564 µg/mL); MIC (Serratia [16]): 16 µM (≈ 6.94 µg/mL); MIC (Providencia rettgeri): 4 µM (≈ 1.74 µg/mL)
N[C@@H](C(=O)N[C@@H]1C(=O)N2C(C(=O)O)=C(C(F)(F)F)CC[C@H]12)c1cccc(C(F)(F)F)c1 | 64 (≈ 28.9 µg/mL) | 32 (≈ 14.4 µg/mL) | 8 (≈ 3.61 µg/mL) | 32 (≈ 14.4 µg/mL) | 16 (≈ 7.22 µg/mL) | 1 (≈ 0.451 µg/mL) | 128 (≈ 57.8 µg/mL) | 4 (≈ 1.81 µg/mL) | 2 (≈ 0.903 µg/mL) | 32 (≈ 14.4 µg/mL) | 128 (≈ 57.8 µg/mL) | 1 (≈ 0.451 µg/mL) | 128 (≈ 57.8 µg/mL) | 0.13 (≈ 0.0587 µg/mL) | 128 (≈ 57.8 µg/mL) | 32 (≈ 14.4 µg/mL) | 16 (≈ 7.22 µg/mL) | 16 (≈ 7.22 µg/mL) | 16 (≈ 7.22 µg/mL) | 128 (≈ 57.8 µg/mL) | MIC (Streptococcus pyogenes [17]): No growth; MIC (Klebsiella pneumoniae [15]): 1 µM (≈ 0.451 µg/mL); MIC (Serratia [16]): 128 µM (≈ 57.8 µg/mL); MIC (Providencia rettgeri): 64 µM (≈ 28.9 µg/mL)
N[C@@H](C(=O)N[C@@H]1C(=O)N2C(C(=O)O)=C(C(F)(F)F)CC[C@H]12)c1cccc(Br)c1 | 16 (≈ 7.4 µg/mL) | 16 (≈ 7.4 µg/mL) | 4 (≈ 1.85 µg/mL) | 16 (≈ 7.4 µg/mL) | 8 (≈ 3.7 µg/mL) | 0.5 (≈ 0.231 µg/mL) | 64 (≈ 29.6 µg/mL) | 64 (≈ 29.6 µg/mL) | 1 (≈ 0.462 µg/mL) | 16 (≈ 7.4 µg/mL) | 16 (≈ 7.4 µg/mL) | 1 (≈ 0.462 µg/mL) | 128 (≈ 59.2 µg/mL) | 0.13 (≈ 0.0601 µg/mL) | 32 (≈ 14.8 µg/mL) | 4 (≈ 1.85 µg/mL) | 4 (≈ 1.85 µg/mL) | 16 (≈ 7.4 µg/mL) | 8 (≈ 3.7 µg/mL) | 32 (≈ 14.8 µg/mL) | MIC (Streptococcus pyogenes [11]): 0.13 µM (≈ 0.0601 µg/mL); MIC (Klebsiella pneumoniae [15]): 0.25 µM (≈ 0.116 µg/mL); MIC (Serratia [16]): 128 µM (≈ 59.2 µg/mL); MIC (Providencia rettgeri): 16 µM (≈ 7.4 µg/mL)
N[C@@H](C(=O)N[C@@H]1C(=O)N2C(C(=O)O)=C(C(F)(F)F)CC[C@H]12)c1ccc(Cl)c(Cl)c1 | 64 (≈ 28.9 µg/mL) | 32 (≈ 14.5 µg/mL) | 32 (≈ 14.5 µg/mL) | 128 (≈ 57.9 µg/mL) | 16 (≈ 7.24 µg/mL) | 2 (≈ 0.904 µg/mL) | 128 (≈ 57.9 µg/mL) | 128 (≈ 57.9 µg/mL) | 0.5 (≈ 0.226 µg/mL) | 32 (≈ 14.5 µg/mL) | 128 (≈ 57.9 µg/mL) | 2 (≈ 0.904 µg/mL) | 128 (≈ 57.9 µg/mL) | 0.13 (≈ 0.0588 µg/mL) | 128 (≈ 57.9 µg/mL) | 32 (≈ 14.5 µg/mL) | 16 (≈ 7.24 µg/mL) | 64 (≈ 28.9 µg/mL) | 8 (≈ 3.62 µg/mL) | 128 (≈ 57.9 µg/mL) | MIC (Streptococcus pyogenes [11]): 0.02 µM (≈ 0.00904 µg/mL); MIC (Klebsiella pneumoniae [15]): 1 µM (≈ 0.452 µg/mL); MIC (Serratia [16]): 128 µM (≈ 57.9 µg/mL); MIC (Providencia rettgeri): 64 µM (≈ 28.9 µg/mL)
CS(=O)(=O)Nc1cccc([C@@H](N)C(=O)N[C@@H]2C(=O)N3C(C(=O)O)=C(C(F)(F)F)CC[C@H]23)c1 | 16 (≈ 7.62 µg/mL) | 8 (≈ 3.81 µg/mL) | 0.5 (≈ 0.238 µg/mL) | 64 (≈ 30.5 µg/mL) | 16 (≈ 7.62 µg/mL) | 2 (≈ 0.953 µg/mL) | 32 (≈ 15.2 µg/mL) | 16 (≈ 7.62 µg/mL) | 2 (≈ 0.953 µg/mL) | 8 (≈ 3.81 µg/mL) | 2 (≈ 0.953 µg/mL) | 2 (≈ 0.953 µg/mL) | 16 (≈ 7.62 µg/mL) | 0.13 (≈ 0.0619 µg/mL) | 16 (≈ 7.62 µg/mL) | 2 (≈ 0.953 µg/mL) | 1 (≈ 0.476 µg/mL) | 16 (≈ 7.62 µg/mL) | 16 (≈ 7.62 µg/mL) | 4 (≈ 1.91 µg/mL) | MIC (Streptococcus pyogenes [11]): 0.06 µM (≈ 0.0286 µg/mL); MIC (Klebsiella pneumoniae [15]): 0.5 µM (≈ 0.238 µg/mL); MIC (Serratia [16]): 32 µM (≈ 15.2 µg/mL); MIC (Providencia rettgeri): 16 µM (≈ 7.62 µg/mL)
N[C@@H](C(=O)N[C@@H]1C(=O)N2C(C(=O)O)=C(Cl)CS[C@H]12)c1ccccc1 [CEFACLOR ANHYDROUS] | 128 (≈ 47.1 µg/mL) | 64 (≈ 23.5 µg/mL) | 1 (≈ 0.368 µg/mL) | 128 (≈ 47.1 µg/mL) | 32 (≈ 11.8 µg/mL) | 2 (≈ 0.736 µg/mL) | 128 (≈ 47.1 µg/mL) | 32 (≈ 11.8 µg/mL) | 0.5 (≈ 0.184 µg/mL) | 128 (≈ 47.1 µg/mL) | 32 (≈ 11.8 µg/mL) | 1 (≈ 0.368 µg/mL) | 64 (≈ 23.5 µg/mL) | 0.5 (≈ 0.184 µg/mL) | 128 (≈ 47.1 µg/mL) | 0.5 (≈ 0.184 µg/mL) | 2 (≈ 0.736 µg/mL) | 128 (≈ 47.1 µg/mL) | 128 (≈ 47.1 µg/mL) | 8 (≈ 2.94 µg/mL) | MIC (Streptococcus pyogenes [11]): 0.06 µM (≈ 0.0221 µg/mL); MIC (Klebsiella pneumoniae [15]): 0.25 µM (≈ 0.092 µg/mL); MIC (Serratia [16]): 128 µM (≈ 47.1 µg/mL); MIC (Providencia rettgeri): 64 µM (≈ 23.5 µg/mL)
